Data taken from US8420621B2, “Methods of using gamma cyclodextrin to control blood glucose and insulin secretion” (Abbott Laboratories, priority 2004, dated 2013).

Legend:
healthy adult subjects [1] = experiment: Clinical study: postprandial plasma glucose response; format: in vivo, human
Description: Thirty-two healthy adult subjects received two treatments in a double-masked, randomized, crossover design. The two treatments consisted of 50 g challenges of either maltodextrin or gamma-cyclodextrin. Blood samples were collected over a three-hour period, and breath samples collected over an eight-hour period following consumption of each carbohydrate. […] This study utilized a randomized, double-masked, crossover design, with a 4-14 day washout period between treatments. Before completing the two treatment visits, each subject completed one pre-study gastrointestinal tolerance test visit. Randomization was carried out by sealed envelopes stating which pre-study treatment was to be received, as well as in which sequence the two treatment visits were to be carried out. These envelopes were prepared from randomization schedules generated at Ross Products Division of Abbott Laboratories, Two product coordinators assigned an envelope from the top of the pile to each subject in the order that they passed all screening criteria and were given subject numbers. Besides carrying out randomization, the product coordinators were responsible for study product inventory and serving the appropriate product to subjects at each visit so that other study staff could not become aware of the study product identity. […] At each of the two treatment visits, subjects received 16 fl oz of a study product containing either 50 g of maltodextrin or 50 g of gamma-cyclodextrin. All beverages were served cold in styrofoam cups with lids and straws, labeled only with the subject number, subject initials and visit number, with the intention of hiding any slight differences in appearance that could be visible to study staff or subjects. On two separate treatment visits, subjects received, in random order, one of the two study beverages. Three days prior to each treatment visit, subjects recorded their food and beverage intake in a food diary. Subjects were required to consume ≧150 g of carbohydrate each day for three days prior to each treatment. Subjects were not to engage in vigorous exercise for 24 hours before each treatment. Subjects consumed an evening low residue Ensure® meal and completed a 10-16 hour overnight fast as detailed previously. […] A breath sample was collected for measurement of breath hydrogen. […] Plasma glucose was measured using an AccuChek Advantage Blood Glucose Monitoring System® (Roche Diagnostics, Indianapolis, Ind.). […] Positive incremental area under the plasma glucose response curve for two hours after each treatment will be calculated using the method of Wolever et al, The glycemic index: methodology and clinical implications, Amer. […]

healthy adult subjects [2] = experiment: Clinical study: gastrointestinal tolerance, stool frequency and consistency; format: in vivo, human
Method: For the pre-study tolerance test, subjects were instructed to not consume anything the day before that was known by them to cause gastrointestinal symptoms. They also completed an overnight 10-16 hour fast. The morning of the test visit, subjects reported to the study site and consumed 8 fl oz of one of the two study beverages within 10 minutes. The study beverage contained either 25 […] of maltodextrin or 25 grams of gamma-cyclodextrin. Subjects then resumed fasting. Subjects were allowed to leave the study site after the beverage had been consumed, however they were instructed to remain fasting for three hours from the time they began drinking the beverage. Subjects recorded gastrointestinal tolerance symptoms and stool frequency and consistency for 24 hours from the time they began drinking the study beverage. Upon subject completion of the gastrointestinal tolerance symptoms and stool frequency and consistency forms, the data were reviewed for signs of abnormal tolerance by a physician. The purpose of this symptom review was to determine if the product was generally well-tolerated. […] After the 180-minute blood and breath samples were collected, the subject was allowed to leave the study site and collect the remaining breath samples (hours 4-8) on their own. During the remainder of the breath collection period, the subject was instructed to refrain from sleep and exercise. Subjects were to remain fasting with the exception of an optional one or two 8 fl oz cans of Ensure® Plus. The flavor given to each subject was the same as that which was chosen for the pre-treatment meals, and the number of cans chosen remained constant for both treatments. Subjects were allowed to consume water as desired during this time. After completion of breath sample collection, subjects were free to resume their normal sleeping, eating, and exercise patterns. They continued to record gastrointestinal symptoms, stool frequency and consistency, and medication usage for the next 48 hours. […]

healthy adult subjects [3] = conditions: single 8 g doses, Koutsou et al. 1999; cited from earlier work

Compound: OC[C@H]1O[C@@H]2O[C@H]3[C@H](O)[C@@H](O)[C@@H](O[C@H]4[C@H](O)[C@@H](O)[C@@H](O[C@H]5[C@H](O)[C@@H](O)[C@@H](O[C@H]6[C@H](O)[C@@H](O)[C@@H](O[C@H]7[C@H](O)[C@@H](O)[C@@H](O[C@H]8[C@H](O)[C@@H](O)[C@@H](O[C@H]9[C@H](O)[C@@H](O)[C@@H](O[C@H]1[C@H](O)[C@H]2O)O[C@@H]9CO)O[C@@H]8CO)O[C@@H]7CO)O[C@@H]6CO)O[C@@H]5CO)O[C@@H]4CO)O[C@@H]3CO [Gamma-Cyclodextrin, Gamma-cyclodextrin]
- Plasma glucose area under the curve (AUC), effect versus maltodextrin (healthy adult subjects [1]; 50 g oral challenge): significantly reduced
- Adjusted peak glucose, difference between treatments (healthy adult subjects [1]; 50 g oral, crossover analysis p<0.0001): significant difference
- Positive incremental 120 min plasma glucose AUC (healthy adult subjects [1]; 50 g oral, mean±SEM, n=31): 133.2±16.5
- Relative glycemic response compared with maltodextrin (healthy adult subjects [1]; baseline to 120 min, 50 g oral): 55%
- Gastrointestinal tolerance versus maltodextrin, pre-study tolerance test (healthy adult subjects [2]; 25 grams oral, 24 hours, reviewing physician): no significant differences
- Stool frequency and consistency, difference between treatments (healthy adult subjects [2]; 50 g oral): no significant differences
- Intensity and frequency of nausea, difference between treatments (healthy adult subjects [2]; first 24 hours after 50 g oral, crossover analysis): not significantly different
- Gastrointestinal tolerance (healthy adult subjects [3]): good tolerance
